For three compounds, IC50 results are on record in patent US20030206972A1, “Compositions containing carotenoids and tocotrienols and having synergistic antioxidant effect” (priority 2000, published 2003).

Where “and” joins values, the source holds several entries; their conditions need not be identical. Identical values can stand only once.

The nature of the assay: Peroxy radical scavenging activity (BODIPY 581/591 C11 fluorescence, AMVN radical generator, microplate); synergy by CalcuSyn median-effect method. The class given is biochemical. Particulars: test material alone, 50 percent inhibition of peroxy radical formation, parenthetic values 95% confidence intervals. As for the experimental part:
As a peroxy radical generator, 2,2′-azobis-2,4-dimethyl valeronitrile (AMVN) was used and obtained from WAKO Chemicals (Richmond, Va.). All standards were of the highest purity commercially available. Additionally, the solvents were of HPLC grade.
Fluorescence measurements were performed using a Packard FluoroCount microplate fluorometer equipped with a temperature-controlled plate holder. All measurements were preformed in a 96-well polypropylene plate with stirring.
Reactions in octane:butyronitrile (9:1, v/v) were carried out at 30° C. All fluorescence measurements were recorded every 15 minutes for 1 hour at excitation wavelengths of 570 nm, with emission at 620 nm. The net protection (area under the curve, AUC) provided by an antioxidant sample was calculated using the trapezoid method. […] The percent inhibition of each dose was calculated as:
[AUC(dose)−AUC(AMVN)]/[AUC(BODIPY)−AUC(AMVN)]×100.
Stock solutions of the test samples were made up in chloroform and 6 μL were added to the reaction mixture to achieve the stated concentrations. The reaction was initiated by the addition of the AMVN and fluorometric readings were recorded every 15 minutes for one hour.
Synergy between astaxanthin and the sample of mixed tocotrienols was assessed using CalcuSyn (BIOSOFT, biosoft.com).
Cm is determined from the x-intercept of the median-effect plot. The fraction affected by the concentration of the test material is fa and the fraction unaffected by the concentration is fu (fu=1−fa). The exponent m is the parameter signifying the sigmoidicity or shape of the dose-effect curve. It is estimated by the slope of the median-effect plot.
The median-effect plot is a plot of x=log(C) vs y=log(fa/fu) and is based on the logarithmic form of Chou's median-effect equation. The goodness of fit for the data to the median-effect equation is represented by the linear correlation coefficient r of the median-effect plot. Usually, the experimental data from enzyme or receptor systems have an r>0.96, from tissue culture an r>0.90 and from animal systems an r>0.85.
Synergy of test components is quantified using the combination index (CI) parameter. […] The equation determines only the additive effect rather than synergism or antagonism.
Dose-response curves were described with each test article separately and then in a two-way combination.

Take `CC1=C(/C=C/C(C)=C/C=C/C(C)=C/C=C/C=C(C)/C=C/C=C(C)/C=C/C2=C(C)C(=O)[C@@H](O)CC2(C)C)C(C)(C)C[C@H](O)C1=O` [Astaxanthin, 3,3′-dihydroxy-β,β-carotene-4,4′-dieto-β-carotene]: the IC50 was 150 (115-194) μg/mL and 182 (145-227) μg/mL. In addition, the IC50 (listed as astaxanthin) was 196 µg/mL and 195 µg/mL.

For the compound `CC1=C[C@H](O)CC(C)(C)[C@H]1/C=C/C(C)=C/C=C/C(C)=C/C=C/C=C(C)/C=C/C=C(C)/C=C/C1=C(C)C[C@@H](O)CC1(C)C` [Lutein, lutein], the IC50 is 38 (29-50) μg/mL.

Turning to `CC1=C(/C=C/C(C)=C/C=C/C(C)=C/C=C/C=C(C)/C=C/C=C(C)/C=C/C2=C(C)CCCC2(C)C)C(C)(C)CCC1` [β-Carotene, β-carotene], the IC50 was 196 (171-226) μg/mL and 135 (85-215) μg/mL.
